Laboratory results from patent US20160368895A1, “PULMONARY HYPERTENSION TREATING AGENT” (THE UNIVERSITY OF TOKYO, priority 2013, published 2016).

Key:
[1] = target: T1, human PGI2 receptors (hIP) (Homo sapiens, UniProt P43119); test: Method C: effect on epoprostenol-cAMP production curve in CHO/hIP cells (left shift value); assay type: cell-based
T1 construct: expressed in transfected cells; host or cells: CHO-K1
Description: The effect of a test compound on the cAMP production curve with respect to the IP agonist epoprostenol (manufactured by GlaxoSmithKline) was investigated using CHO-K1 cells (CHO/hIP cells) in which human PGI2 receptors (hIP) are stably expressed.
(§1) An amount of 5 μL of a mixture (diluted in F-12 culture medium (manufactured by GIBCO) including 0.1% BSA) of epoprostenol dissolved in DMSO and a test compound dissolved in DMSO was dispensed in advance into a 384-well black microplate, and 5 μL of CHO/hIP cells suspended at a concentration of 1.4×10^6 cells/mL in F-12 culture medium including 0.1% BSA were added to the microplate. After 40 minutes of incubation at room temperature, the amount of cAMP was measured using a cAMP assay kit (cAMP HiRange, manufactured by Cisbio Bioassays). Specifically, 5 μL of a cAMP-d2 solution (including a cell lysate) from the kit were added and the reaction was stopped, then 5 μL of a fluorescence-labeled cAMP antibody solution from the kit were added and incubation was performed for 1 hour at room temperature, after which fluorescence was measured using a PHERAstar plate reader (manufactured by BMG) in HTRF (registered trademark) mode. The amount of cAMP in each well was calculated from a cAMP calibration curve obtained using a standard sample, and an epoprostenol-cAMP production curve for the presence of various concentrations of the test compound was created.

[2] = target: T1, human PGI2 receptors (hIP); test: Method B: positive allosteric modulator activity, cAMP in CHO/hIP cells with 1 nM epoprostenol; assay type: cell-based; conditions: cAMP relative to 1 nM epoprostenol alone
Description: The positive allosteric modulator activity of a test compound was measured as a change in the amount of intracellular cyclic AMP (cAMP) in the presence of 1 nM of the IP agonist epoprostenol (manufactured by GlaxoSmithKline), using CHO-K1 cells (CHO/hIP cells) in which human PGI2 receptors (hIP) are stably expressed.
as §1, with “and” for “and an epoprostenol-cAMP production curve for”, “activity” for “presence”, “each” for “various concentrations of the”, “is noted below as a ratio T/C (%) based on the amount of cAMP for 1 nM of epoprostenol alone.” for “was created.”

[3] = Table 4, concentration of test compound that halves the EC50 of epoprostenol
[4] = Table 5, concentration of test compound that halves the EC50 of epoprostenol

T1 sequence (P43119 whole entry): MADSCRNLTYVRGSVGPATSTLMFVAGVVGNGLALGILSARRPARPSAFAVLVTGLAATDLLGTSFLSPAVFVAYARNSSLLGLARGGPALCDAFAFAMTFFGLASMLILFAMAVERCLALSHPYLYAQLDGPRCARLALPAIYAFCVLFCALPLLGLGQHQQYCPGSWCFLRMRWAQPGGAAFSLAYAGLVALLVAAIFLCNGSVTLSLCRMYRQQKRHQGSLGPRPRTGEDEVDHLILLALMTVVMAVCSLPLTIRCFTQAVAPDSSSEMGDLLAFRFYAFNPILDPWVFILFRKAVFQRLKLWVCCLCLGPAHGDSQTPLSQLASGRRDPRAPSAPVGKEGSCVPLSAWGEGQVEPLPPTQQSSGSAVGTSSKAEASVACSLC

| SMILES | left shift value [1, 3] [µM] | T/C ([2]; test concentration 10 uM) [%] | T/C ([2]; test concentration 5 uM) [%] | left shift value [1, 4] [µM] |
| --- | --- | --- | --- | --- |
| CC(C)(C)n1nnnc1C(c1ccccc1OCc1ccccc1)N1CCc2ccccc2C1 (stereo not shown) [Example 1, 2-((2-(benzyloxy)phenyl)(1-tert-butyl-1H-tetrazol-5-yl)methyl)-1,2,3,4-tetrahydroisoquinoline] | 24.9 | 151.7 |  |  |
| CC(C)(C)n1nnnc1C(c1ccccc1Br)N1CCc2ccccc2C1 (stereo not shown) [Example 2] | 15.5 | 152.5 |  |  |
| Cc1ccc(C(c2nnnn2C(C)(C)C)N2CCc3ccccc3C2)cc1 (stereo not shown) [Example 3] | 71.4 |  | 100.6 |  |
| CC(C)(C)n1nnnc1C(c1ccc(Br)cc1)N1CCc2ccccc2C1 (stereo not shown) [Example 4] | 35.7 |  | 100.1 |  |
| CC(C)(C)n1nnnc1C(c1ccc(O)cc1)N1CCc2ccccc2C1 (stereo not shown) [Example 5] | 10.9 | 156.4 |  |  |
| CC(C)(C)n1nncc1C(c1ccc(C(F)(F)F)cc1)N1CCc2ccccc2C1 (stereo not shown) [Example 6] |  | 93.7 |  |  |
| CC(C)(C)n1nnnc1C1c2ccc(F)cc2SC2Cc3ccccc3CN21 (stereo not shown) [Example 7] | 24.1 | 127.6 |  |  |
| COc1ccc(C(c2nnnn2C(C)(C)C)N2CCc3ccccc3C2)c(F)c1 (stereo not shown) [Example 8] | 7.2 | 184.2 |  |  |
| Cc1ccc(C(c2nnnn2C(C)(C)C)N2CCc3ccccc3C2)cc1 (stereo not shown) [Example 9] | 13.4 | 153.2 |  |  |
| CC(C)(C)n1nnnc1C(c1ccc(Cl)cc1)N1CCc2ccccc2C1 (stereo not shown) [Example 10] | 110.9 | 117.0 |  |  |
| Cc1ccccc1C(c1nnnn1C(C)(C)C)N1CCc2ccccc2C1 (stereo not shown) [Example 11] |  | 95 |  |  |
| COc1ccc(C(c2nnnn2C(C)(C)C)N2CCc3ccccc3C2)c(OC)c1 (stereo not shown) [Example 12] | 10.4 | 155.2 |  |  |
| CSc1ccccc1C(c1nnnn1C(C)(C)C)N1CCc2ccccc2C1 (stereo not shown) [Example 13] | 3.1 | 218.3 |  |  |
| COc1ncccc1C(c1nnnn1C(C)(C)C)N1CCc2ccccc2C1 (stereo not shown) [Example 14] | 17.7 | 132.1 |  |  |
| COc1cccc(C(c2nnnn2C(C)(C)C)N2CCc3ccccc3C2)c1 (stereo not shown) [Example 15] | 32.4 | 122.4 |  |  |
| CC(C)(C)n1nnnc1C(c1ccccc1F)N1CCc2ccc(Cl)cc2C1 (stereo not shown) [Example 16] | 232.2 | 104.6 |  |  |
| CC(C)(C)n1nnnc1C(c1ccccc1Br)N1CCc2ccc(Cl)cc2C1 (stereo not shown) [Example 17] |  |  | 87 |  |
| CC(C)(C)n1nnnc1C(c1ccccc1N=O)N1CCc2ccc(Cl)cc2C1 (stereo not shown) [Example 18] |  | 94.1 |  |  |
| Cc1ccccc1C(c1nnnn1C(C)(C)C)N1CCc2ccc(Cl)cc2C1 (stereo not shown) [Example 19] |  |  | 90 |  |
| COc1ccccc1C(c1nnnn1C1C2CC3CC(C2)CC1C3)N1CCc2ccccc2C1 (stereo not shown) [Example 20] | 11.1 |  | 126.3 |  |
| COc1ccccc1C(c1nnnn1C1(C)CCCCC1)N1CCc2ccccc2C1 (stereo not shown) [Example 21] | 2.0 | 229.7 |  |  |
| COc1ccccc1C(c1nnnn1C1(C)CCCC1)N1CCc2ccccc2C1 (stereo not shown) [Example 22] | 8.3 | 149.6 |  |  |

| SMILES | left shift value [1, 3] [µM] | T/C ([2]; test concentration 10 uM) [%] | T/C ([2]; test concentration 5 uM) [%] | left shift value [1, 4] [µM] |
| --- | --- | --- | --- | --- |
| COc1cc2ccccc2cc1C(c1nnnn1C(C)(C)C)N1CCc2ccccc2C1 (stereo not shown) [Example 23] | 119.6 | 106.4 |  |  |
| CC(C)(C)n1nnnc1C(c1cc2ccccc2[nH]1)N1CCc2ccccc2C1 (stereo not shown) [Example 40] |  | 89.3 |  |  |
| CC1(n2nnnc2C(c2ccccc2)N2CCc3ccccc3C2)CCCCC1 (stereo not shown) [Example 41] |  |  | 116.3 |  |
| COc1ccccc1C(C)(c1nnnn1C(C)(C)C)N1CCc2ccccc2C1 (stereo not shown) [Example 48] |  | 72.3 |  |  |
| CC(C)(C)n1nnnc1C(c1cc2ccccc2s1)N1CCc2ccccc2C1 (stereo not shown) [Example 49] |  | 104.7 |  |  |
| CC(C)(C)n1nnnc1C(c1cc2ccccc2o1)N1CCc2ccccc2C1 (stereo not shown) [Example 50] |  | 105.0 |  |  |
| COc1ccc(C(c2nnnn2C(C)(C)C)N2CCc3sccc3C2)cc1 (stereo not shown) [Example 63, 5-((1-(tert-butyl)-1H-tetrazol-5-yl)(4-methoxyphenyl)methyl)-4,5,6,7-tetrahydrothieno[3,2-c]pyridine] |  |  |  | 34.9 |
| CC(C)(C)n1nnnc1C(c1ccccc1Br)N1CCc2sccc2C1 (stereo not shown) [Example 65, 5-((2-bromophenyl)(1-(tert-butyl)-1H-tetrazol-5-yl)methyl)-4,5,6,7-tetrahydrothieno[3,2-c]pyridine] |  |  |  | 66.2 |
| CC(C)(C)n1nnnc1C(c1ccc[nH]1)N1CCc2sccc2C1 (stereo not shown) [Example 66, 5-((1-(tert-butyl)-1H-tetrazol-5-yl)(1H-pyrrol-2-yl)methyl)-4,5,6,7-tetrahydrothieno[3,2-c]pyridine] |  |  |  | 84.5 |
| CC(C)(C)n1nnnc1C(c1ccsc1)N1CCc2sccc2C1 (stereo not shown) [Example 68, 5-((1-(tert-butyl)-1H-tetrazol-5-yl)(thiophen-3-yl)methyl)-4,5,6,7-tetrahydrothieno[3,2-c]pyridine] |  |  |  | 15.5 |
| CC(C)(C)n1nnnc1C(c1ccccc1F)N1CCc2sccc2C1 (stereo not shown) [Example 69, 5-((1-(tert-butyl)-1H-tetrazol-5-yl)(2-fluorophenyl)methyl)-4,5,6,7-tetrahydrothieno[3,2-c]pyridine] |  |  |  | 20.6 |
| CSc1ccccc1C(c1nnnn1C(C)(C)C)N1CCc2sccc2C1 (stereo not shown) [Example 70, 5-((1-(tert-butyl)-1H-tetrazol-5-yl)(2-(methylthio)phenyl)methyl)-4,5,6,7-tetrahydrothieno[3,2-c]pyridine] |  |  |  | 14.8 |
| CC1(n2nnnc2C(c2ccccc2O)N2CCc3ccccc3C2)CCCCC1 (stereo not shown) [Example 71, 2-((3,4-dihydroisoquinolin-2(1H)-yl)-(1-(1-methylcyclohexyl)-1H-tetrazol-5-yl)methyl)phenol] |  |  |  | 2.3 |
| COc1ccsc1C(c1nnnn1C(C)(C)C)N1CCc2sccc2C1 (stereo not shown) [Example 72, 5-((1-(tert-butyl)-1H-tetrazol-5-yl)(3-methoxythiophen-2-yl)methyl)-4,5,6,7-tetrahydrothieno[3,2-c]pyridine] |  |  |  | 3.2 |
| CC(C)(C)n1nnnc1C(c1nccs1)N1CCc2ccccc2C1 (stereo not shown) [Example 73, 2-((1-(tert-butyl)-1H-tetrazol-5-yl)(3,4-dihydroisoquinolin-2(1H)-yl)methyl)thiazole] |  |  |  | 44.6 |
| CC1(n2nnnc2C(c2cccs2)N2CCc3sccc3C2)CCCCC1 (stereo not shown) [Example 74, 5-((1-(1-methylcyclohexyl)-1H-tetrazol-5-yl)(thiophen-2-yl)methyl)-4,5,6,7-tetrahydrothieno[3,2-c]pyridine] |  |  |  | 8.6 |
| COc1ccsc1C(c1nnnn1C1(C)CCCCC1)N1CCc2sccc2C1 (stereo not shown) [Example 75, 5-((3-methoxythiophen-2-yl)(1-(1-methylcyclohexyl)-1H-tetrazol-5-yl)methyl)-4,5,6,7-tetrahydrothieno[3,2-c]pyridine] |  |  |  | 2.1 |
| COc1ccccc1C(c1nnnn1C1(C)CCCCC1)N1CCc2sccc2C1 (stereo not shown) [Example 76, 5-((2-methoxyphenyl)(1-(1-methylcyclohexyl)-1H-tetrazol-5-yl)methyl)-4,5,6,7-tetrahydrothieno[3,2-c]pyridine] |  |  |  | 7.2 |
| COc1c(F)cccc1C(c1nnnn1C(C)(C)C)N1CCc2ccccc2C1 (stereo not shown) [Example 80, 2-((1-(tert-butyl)-1H-tetrazol-5-yl)(3-fluoro-2-methoxyphenyl)methyl)-1,2,3,4-tetrahydroisoquinoline] |  |  |  | 26.5 |
| COc1ccccc1C(c1nnnn1C(C)(C)C)N1CCC2CCCCC2C1 (stereo not shown) [Example 82, 2-((1-(tert-butyl)-1H-tetrazol-5-yl)(2-methoxyphenyl)methyl)deca-hydroisoquinoline] |  |  |  | 6.2 |
| CC1(n2nnnc2C(c2cccc(F)c2O)N2CCc3ccccc3C2)CCCCC1 (stereo not shown) [Example 83] |  |  |  | 25.0 |
